How the values were obtained:
[1] = target: T1, E3 ubiquitin-protein ligase CBL-B (Homo sapiens, UniProt Q13191); test: Binding affinity towards N-terminal biotinylated Avi-tagged human CBL-B (36 to 427 residues) measured by surface plasmon resonance assay
[2] = target: T1, E3 ubiquitin-protein ligase CBL-B; test: Inhibition of N-terminal Avi-tagged human CBL-B (36 to 427 residues) incubated with 60 nM Src kinase for 1.5 hrs followed by incubation with fluorescently labeled UbcH5B-Ub for 1 hr and measured by TR-FRET assay; format: single protein
[3] = Induction of anti-CD3 antibodies-stimulated human T cell activation at 1 uM assessed fold increase in CD25 expression measured by ELISA assay; format: functional, T cell line; also: reference of the scale not given here
[4] = Induction of anti-CD3/CD28 antibodies-stimulated human T cell activation at 1 uM assessed fold increase in CD25 expression measured by ELISA assay; format: functional, T cell line
[5] = Induction of anti-CD3/CD28 antibodies-stimulated human T cell activation at 1 uM assessed fold increase in IL-2 secretion measured by ELISA assay; format: functional, T cell line
[6] = Induction of anti-CD3 antibodies-stimulated human T cell activation at 1 uM assessed fold increase in IL-2 secretion measured by ELISA assay; format: functional, T cell line; also: reference of the scale not given here
[7] = Induction of anti-CD3/CD28 antibodies-stimulated human T cell activation at 0.3 uM assessed fold increase in IL-2 secretion measured by ELISA assay; format: functional, T cell line
[8] = Induction of anti-CD3/CD28 antibodies-stimulated human T cell activation at 0.3 uM assessed fold increase in CD25 expression measured by ELISA assay; format: functional, T cell line
[9] = Induction of anti-CD3 antibodies-stimulated human T cell activation at 8 uM assessed fold increase in CD25 expression measured by ELISA assay; format: functional, T cell line; also: reference of the scale not given here
[10] = Induction of anti-CD3 antibodies-stimulated human T cell activation at 8 uM assessed fold increase in IL-2 secretion measured by ELISA assay; format: functional, T cell line; also: reference of the scale not given here
[11] = Induction of anti-CD3/CD28 antibodies-stimulated human T cell activation at 4 uM assessed fold increase in CD25 expression measured by ELISA assay; format: functional, T cell line
[12] = Induction of anti-CD3/CD28 antibodies-stimulated human T cell activation at 4 uM assessed fold increase in IL-2 secretion measured by ELISA assay; format: functional, T cell line

T1 sequence (Q13191 whole entry, the tested form may be a part): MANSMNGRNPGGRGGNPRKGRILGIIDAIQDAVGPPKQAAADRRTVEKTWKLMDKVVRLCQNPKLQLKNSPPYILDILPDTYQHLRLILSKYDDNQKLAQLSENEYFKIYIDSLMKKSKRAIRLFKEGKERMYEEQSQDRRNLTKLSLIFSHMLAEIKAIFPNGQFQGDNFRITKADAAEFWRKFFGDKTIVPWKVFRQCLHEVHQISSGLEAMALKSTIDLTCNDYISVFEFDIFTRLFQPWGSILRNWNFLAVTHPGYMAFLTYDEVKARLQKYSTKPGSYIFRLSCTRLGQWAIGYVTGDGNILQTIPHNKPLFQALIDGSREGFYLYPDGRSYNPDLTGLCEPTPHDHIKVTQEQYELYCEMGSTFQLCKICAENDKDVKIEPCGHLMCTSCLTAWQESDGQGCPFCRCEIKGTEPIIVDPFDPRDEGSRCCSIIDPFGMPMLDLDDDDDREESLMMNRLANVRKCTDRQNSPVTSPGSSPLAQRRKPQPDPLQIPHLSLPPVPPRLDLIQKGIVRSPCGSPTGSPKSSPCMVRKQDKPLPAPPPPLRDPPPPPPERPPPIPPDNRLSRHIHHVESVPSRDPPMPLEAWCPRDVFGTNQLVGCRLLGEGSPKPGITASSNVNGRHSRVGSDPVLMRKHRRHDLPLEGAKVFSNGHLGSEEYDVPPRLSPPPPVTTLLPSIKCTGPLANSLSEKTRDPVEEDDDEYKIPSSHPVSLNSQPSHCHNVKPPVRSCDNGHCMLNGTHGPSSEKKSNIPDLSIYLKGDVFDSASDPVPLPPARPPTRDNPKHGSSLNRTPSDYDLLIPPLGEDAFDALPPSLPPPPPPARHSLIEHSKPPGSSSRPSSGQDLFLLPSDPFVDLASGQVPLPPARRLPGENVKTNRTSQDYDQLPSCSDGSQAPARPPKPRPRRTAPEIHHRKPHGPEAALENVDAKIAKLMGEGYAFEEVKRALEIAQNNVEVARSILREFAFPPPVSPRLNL

Row | Kd [1] | IC50 [2] | SMILES | fold change (FC) [3] | fold change (FC) [4] | fold change (FC) [5] | fold change (FC) [6] | fold change (FC) [7] | fold change (FC) [8] | fold change (FC) [9] | fold change (FC) [10] | fold change (FC) [11] | fold change (FC) [12]
1 | > 10 µM | – | C[C@H](Sc1nncn1C)c1cccc(NC(=O)c2cc(NS(=O)(=O)CCO)ccn2)c1 | – | – | – | – | – | – | – | – | – | –
2 | > 10 µM | – | CC(Sc1nncn1C)c1ccc(F)c(NC(=O)c2ccc3ccccc3n2)c1 (stereo unspecified) | – | – | – | – | – | – | – | – | – | –
3 | > 10 µM | – | C[C@H](Sc1nncn1C)c1cccc(NC(=O)c2cc(C(=O)N3C[C@@H](O)C[C@@H]3C)ccn2)c1 | – | – | – | – | – | – | – | – | – | –
4 | > 10 µM | – | C[C@H](Sc1nncn1C)c1cccc(NC(=O)c2cc(C(=O)N3CCCC3)ccn2)c1 | – | – | – | – | – | – | – | – | – | –
5 | > 10 µM | – | COc1c(C(=O)Nc2cccc([C@H](C)Sc3nncn3C)c2)cccc1C(F)(F)F | – | – | – | – | – | – | – | – | – | –
6 | > 10 µM | – | C[C@H](Sc1nncn1C)c1cccc(NC(=O)c2cc3cc(OCC(=O)O)ccc3cn2)c1 | – | – | – | – | – | – | – | – | – | –
7 | > 10 µM | – | CC(C)c1cccc(C(=O)Nc2cccc([C@H](C)Sc3nncn3C)c2)c1 | – | – | – | – | – | – | – | – | – | –
8 | > 10 µM | ≥ 3 µM | CC1=CC(C(=O)Nc2cccc([C@H](C)Sc3nncn3C)c2)=NC(=O)C1 | – | – | – | – | – | – | – | – | – | –
9 | > 10 µM | – | C=CCC(Sc1nncn1C)c1cccc(NC(=O)c2ccc3ccccc3n2)c1 (stereo unspecified) | – | – | – | – | – | – | – | – | – | –
10 | > 10 µM | – | C[C@H](Sc1nncn1C)c1cccc(NC(=O)c2cc(C(=O)N3C[C@H](O)C[C@H]3C)ccn2)c1 | – | – | – | – | – | – | – | – | – | –
11 | > 10 µM | – | C[C@@H](Sc1nncn1C)c1cccc(NC(=O)c2cc(C(=O)N3CCC(O)C3)ccn2)c1 (single isomer, unassigned) | – | – | – | – | – | – | – | – | – | –
12 | > 10 µM | – | Cc1cnc(C(=O)Nc2cccc([C@H](C)Sc3nncn3C)c2)cc1C(F)(F)F | – | – | – | – | – | – | – | – | – | –
13 | > 10 µM | – | C[C@H](Sc1nncn1C)c1cccc(NC(=O)c2cccc(C(F)(F)F)c2)c1 | – | – | – | – | – | – | – | – | – | –
14 | > 10 µM | – | C=CCC(Sc1nncn1C)c1cccc(NC(=O)c2cc3ccccc3cn2)c1 (stereo unspecified) | – | – | – | – | – | – | – | – | – | –
15 | > 10 µM | – | C[C@@H](Sc1nncn1C)c1ccc(F)c(NC(=O)c2cccc(C(F)(F)F)n2)c1 | – | – | – | – | – | – | – | – | – | –
16 | – | < 0.1 µM | C[C@H](Sc1nncn1C)c1cccc(NC(=O)c2cc(C3CC3)cc(C(F)(F)F)n2)c1 | 0.801 | 1.01 | 1.01 | <=0.05 | 1.01 | 1.01 | >=1.001 | 0.101 | 1.01 | 2.51
17 | > 10 µM | – | C[C@H](Sc1nncn1C)c1cccc(NC(=O)c2cc(C(=O)N3CCC[C@@H](O)C3)ccn2)c1 | – | – | – | – | – | – | – | – | – | –
18 | – | < 0.1 µM | C[C@H](Sc1nncn1C)c1cccc(NC(=O)c2ccc(C#N)c(C3CC3)n2)c1 | 0.601 | 1.31 | 2.51 | <=0.05 | 1.01 | 1.01 | >=1.001 | 0.101 | 1.31 | 5
19 | – | < 0.1 µM | C[C@H](Sc1nncn1C)c1cccc(NC(=O)c2ccc(CO)c(C3CC3)n2)c1 | <=0.6 | 1.01 | 2.51 | <=0.05 | 1.01 | 1.01 | 0.801 | 0.101 | 1.31 | 5
20 | – | < 0.1 µM | C[C@H](Cc1nncn1C)c1cccc(NC(=O)c2cccc(C(F)(F)F)n2)c1 | >=1.001 | >=1.76 | 5 | >=0.201 | 2.51 | >=1.76 | >=1.001 | >=0.201 | >=1.76 | >=7.5

Further lines, the compound ahead of its results:

Row | SMILES | Kd [1] | IC50 [2] | fold change (FC) [3] | fold change (FC) [4] | fold change (FC) [5] | fold change (FC) [6] | fold change (FC) [7] | fold change (FC) [8] | fold change (FC) [9] | fold change (FC) [10] | fold change (FC) [11] | fold change (FC) [12]
21 | CC(O)C1CN(C(=O)c2ccnc(C(=O)Nc3cccc([C@H](C)Cc4nncn4C)c3)c2)C1 (stereo partly specified) | < 0.1 µM | – | – | – | – | – | – | – | – | – | – | –
22 | C[C@@H](Sc1nncn1C)c1ccnc(N2Cc3c(cccc3C(F)(F)F)C2=O)c1 | > 10 µM | – | – | – | – | – | – | – | – | – | – | –
23 | C[C@H](Cc1nncn1C)c1cccc(N2Cc3c(cc(CN4CC[C@H](O)C4)cc3C(F)(F)F)C2=O)c1 | < 0.1 µM | < 0.1 µM | – | – | – | – | – | – | – | – | – | –
24 | CC(c1cccc(N2Cc3c(cccc3C(F)(F)F)C2=O)c1)C(F)(F)c1nncn1C (stereo unspecified) | < 0.1 µM | – | – | – | – | – | – | – | – | – | – | –
25 | C[C@H](Cc1ncnn1C)c1cccc(N2Cc3c(cccc3C(F)(F)F)C2=O)c1 | > 10 µM | – | – | – | – | – | – | – | – | – | – | –
26 | Cn1cnnc1CC1(c2cccc(NC(=O)c3cc(Cn4ccnn4)nc(C4CC4)n3)c2)COC1 | < 0.1 µM | < 0.1 µM | 0.801 | 1.31 | 2.51 | 0.101 | 1.01 | 1.01 | – | – | – | –
27 | CCn1cnnc1C[C@H](C)c1cccc(NC(=O)c2cc(S(C)(=O)=O)cc(C3CC3)n2)c1 | ≥ 3 µM | ≥ 3 µM | – | – | – | – | – | – | – | – | – | –
28 | C[C@@H](Cc1nncn1C)c1ccnc(N2Cc3c(cccc3C(F)(F)F)C2=O)c1 | > 10 µM | – | – | – | – | – | – | – | – | – | – | –
29 | C[C@H](c1cc2c(c(C(F)(F)F)c1)CN(c1cccc(C3([C@@H](F)c4nncn4C)COC3)c1)C2=O)N1CCC2(CC2)C1 | < 0.1 µM | < 0.1 µM | >=1.001 | >=1.76 | >=7.5 | >=0.201 | >=7.5 | >=1.76 | – | – | – | –
30 | C[C@H](c1cc2c(c(C(F)(F)F)c1)CN(c1cccc(C3(C(F)(F)c4nncn4C)COC3)c1)C2=O)N1CC[C@H](F)C1 | < 0.1 µM | < 0.1 µM | >=1.001 | >=1.76 | >=7.5 | >=0.201 | >=7.5 | >=1.76 | – | – | – | –
31 | C[C@@H](c1cc2c(c(C(F)(F)F)c1)CN(c1cccc([C@@](C)(F)C(F)(F)c3nncn3C)c1)C2=O)N1CC[C@H](F)C1 | – | < 0.1 µM | >=1.001 | 1.51 | >=7.5 | >=0.201 | >=7.5 | 1.31 | >=1.001 | >=0.201 | 1.51 | >=7.5
32 | Cn1cnnc1C(F)(F)[C@](C)(F)c1cccc(N2Cc3c(cc(CN4CC(C(F)F)C4)cc3C(F)(F)F)C2=O)c1 | – | < 0.1 µM | >=1.001 | 1.31 | >=7.5 | >=0.201 | 5 | 1.31 | >=1.001 | 0.151 | 1.31 | >=7.5
33 | C[C@H](Sc1nncn1C)c1cccc(NC(=O)c2cc(C(=O)N3CCC[C@H](O)C3)ccn2)c1 | > 10 µM | – | – | – | – | – | – | – | – | – | – | –
34 | C[C@H](Sc1nncn1C)c1ccnc(NC(=O)c2cc(C(F)(F)F)c(Cl)cn2)c1 | > 10 µM | – | – | – | – | – | – | – | – | – | – | –
35 | Cn1cnnc1CC1(c2cccc(N3Cc4c(cc(CO)cc4C(F)(F)F)C3=O)c2)COC1 | – | < 0.1 µM | 0.601 | 1.31 | 5 | 0.101 | 2.51 | 1.01 | 0.601 | 0.051 | 1.51 | >=7.5
36 | Cn1cnnc1C(F)(F)[C@](C)(F)c1cccc(N2Cc3c(cc(CN4C[C@@H](F)[C@@H](F)C4)cc3C(F)(F)F)C2=O)c1 | – | < 0.1 µM | >=1.001 | 1.31 | 5 | 0.151 | 2.51 | 1.31 | >=1.001 | >=0.201 | 1.51 | >=7.5
37 | C[C@H](Cc1nnco1)c1cccc(N2Cc3c(cccc3C(F)(F)F)C2=O)c1 | > 10 µM | – | – | – | – | – | – | – | – | – | – | –
38 | Cn1cnnc1CC1(c2cccc(N3Cc4c(cc(CN5CC(C(=O)O)C5)cc4C(F)(F)F)C3=O)c2)COC1 | – | < 0.1 µM | 0.801 | 1.01 | 1.01 | 0.151 | 1.01 | 1.01 | >=1.001 | >=0.201 | 1.01 | 1.01
39 | Cn1cnnc1CC1(c2cccc(N3Cc4c(cc(CN5CCCC5=O)cc4C(F)(F)F)C3=O)c2)COC1 | – | < 0.1 µM | >=1.001 | 1.01 | 1.01 | 0.151 | 1.01 | 1.01 | >=1.001 | >=0.201 | 1.01 | 2.51
40 | Cn1cnnc1CC1(c2cccc(N3Cc4c(cc(CN5CC[C@H](F)C5)cc4C4CC4)C3=O)c2)COC1 | < 0.1 µM | < 0.1 µM | >=1.001 | 1.31 | >=7.5 | 0.151 | >=7.5 | 1.31 | – | – | – | –

Source: ChEMBL document CHEMBL5050844 (2019)
